Reference: patent US20100322887A1, “HAIR NOURISHING COSMETIC” (SHOWA DENKO K.K., priority 2008, published 2010)

Experiments:
Solubility in water = conditions: normal temperature
male C3H/HeN Sic mice = test: Hair regrowth promotion test using mouse; type: in vivo; conditions: after 20 days
Method: 15 male C3H/HeN Sic 7-week old mice in the resting stage of the hair cycle had their hair at the back part shorn off carefully with an electric hair clipper and an electric shaver. These mice were divided into three groups each containing 5 mice. To the skin of the shorn part of each mouse in one group, 0.1 ml of a test sample shown in the following Table 4 was applied once a day, and to the skin of the shorn part of each mouse in another group, a base was applied in the same amount. The residual group in which nothing had been applied was regarded as an untreated control.
After 20 days from the beginning of the experiments, the back part of each mouse was photographed. By the use of an image analyzing software (Image-J), a ratio of the area where the hair had regrown to the whole area of the hair shorn part was calculated, and the resulting ratio was regarded as a hair regrowth ratio. The hair regrowth ratio of each mouse was calculated, and statistical analysis of the hair regrowth ratio of each group was carried out. The results are shown in FIG. 1 and the following Table 5.

solubility in water (Solubility in water) | Molecule | Hair regrowth ratio (%) Average (male C3H/HeN Sic mice; 0.1 ml once a day on shorn back skin, in Macrogol 400:Macrogol 4000 = 9:1 base, n=5) | hair regrowth ratio (in words) (male C3H/HeN Sic mice; test sample group)
less than 100 ppm | COC1=C(OC)C(=O)C(C/C=C(\C)CC/C=C(\C)CC/C=C(\C)CC/C=C(\C)CC/C=C(\C)CC/C=C(\C)CC/C=C(\C)CC/C=C(\C)CC/C=C(\C)CCC=C(C)C)=C(C)C1=O [ubiquinone] |  | 
 | tetrapotassium ubiquinol-1,4-diphosphate | 58.45% | tendency of enhancement
